Source: PubChem BioAssay AID2060883 (Molecular Pharmacology Branch, DTP, NCI, 2025)

Test system: 843782-103-R-J1-PDC complex spheroid viability
Assay: Anticancer human tumor 843782-103-R-J1-PDC patient-derived lung adenocarcinoma cell line growth inhibition [RAS]
Conditions: for IC50: curve of first compound; for viability, T/C: stronger effect = lower value
Source text: RAS pathway inhibitors in Combinations in Complex Spheroids
A high-throughput screen of multi-cell type tumor spheroids was designed to identify active combinations of RAS pathway inhibitors and targeted small molecules. Complex spheroids include a stromal component modeled by human endothelial cells (HUVEC) and fibroblasts modeled by human mesenchymal stem cells (MSCs). The concentration ranges selected for each drug and investigational agent were based upon clinically achievable concentrations if the clinical Cmax of the agent was known.
Compounds. The drugs and investigational agents: abemaciclib (NSC768073), cobimetinib (NSC768068), divarasib (GDC6063, NSC841802), docetaxel (NSC628503), GDC-1971 (RLY-1971, NSC841576), gemcitabine (NSC613327), inavolisib (NSC800729), ipatasertib (NSC767898), KB-0742 (NSC834161), MRTX-1133 (NSC836407), osimertinib (NSC779217), RMC-4630 (NSC839698), RMC-6236 (NSC851965), RMC-6291 (NSC852671), Ro-3306 (NSC812927), sapanisertib (NSC764658), SN-38 (NSC673596), staurosporine (NSC755774), SY5609 (NSC837396), and tovorafenib (DAY101, NSC766906), were obtained from the National Cancer Institute (NCI) Developmental Therapeutics Program Chemical Repository. The FDA-approved anticancer drug set is available from the NCI Developmental Therapeutics Program. […] The stock solutions were prepared in dimethyl sulfoxide (DMSO, Sigma-Aldrich, St. Louis, MO, cat. D2650) at 800-fold the tested concentration and stored at -70 degrees C prior to their use. All drugs and investigational agents were tested over a range starting from a high concentration at or near the clinical Cmax and decreasing in half-log increments. If the clinical Cmax for an agent had not been determined, the highest concentration tested was 10 microM.
Cell Culture. All cells were maintained in an incubator at 37 degrees C and 5% CO2 with 95% humidity. The PDC lines were cultured according to standard operating procedures established by the NCI PDMR. All PDCs were thawed and cultured in Matrigel-coated flasks prepared with a working solution of 1X Ham's F-12 nutrient mix, without supplementation (Invitrogen, Waltham, MA, cat. 11765054), 100 U/mL penicillin-streptomycin (Invitrogen, cat. 15140122), and 2.5% Matrigel (Corning Inc., Corning, NY, cat. 354248) for the first three passages. The 362531-283-R-J2-PDC and 782815-120-R-J1-PDC lines were cultured in 6C/Colon 1B media, which includes advanced DMEM/F-12 (Thermo Fisher Scientific, cat. 12634028), 10 mM HEPES (Thermo Fisher Scientific, cat. 15630080), 1X GlutaMAX supplement (Thermo Fisher Scientific, cat. 35050061), 0.1 mg/mL primocin (InvivoGen, San Diego, CA, cat. ant-pm-2), 10% defined fetal bovine serum, heat inactivated (HyClone Laboratories Inc., Logan, UT, cat. SH30070.03HI), 50% L-WRN conditioned media (ATCC, cat. CRL-3276), 1.25 mM N-Acetyl-L-cysteine (Sigma-Aldrich, cat. A9165), 10 mM nicotinamide (Sigma-Aldrich, cat. N0636), 1X B-27 supplement (Thermo Fisher Scientific, cat. 17504044), 1X N-2 supplement (Thermo Fisher Scientific, cat. 17502048), 50 ng/mL human EGF (Thermo Fisher Scientific, cat. PHG0311), and 10 microM Y-27632 dihydrochloride (Tocris Bioscience, cat. 1254). The K12877-001-R-J1-PDC line was cultured in 6I media, which includes all 6C/Colon 1B media plus 10 ng/mL human FGF-10 (PeproTech, cat. 100-26), 1 ng/mL human FGF-2 (PeproTech, cat. 100-18B), 1 µM prostaglandin E2 (Tocris Bioscience, cat. 2296), […] hydrocortisone (Sigma-Aldrich, cat. H4001), and […] bovine insulin (Sigma-Aldrich, cat. I6634). The K86415-001-R-J1-PDC line was cultured in 6D media, which includes all 6C/Colon 1B media components minus the L-WRN conditioned media. The 485176-168-R4-J1-PDC was cultured in PANC media, which includes all 6C/Colon 1B media plus 100 ng/mL human FGF-10 (PeproTech, cat. 100-26), 500 nM SB-431542 (Selleckchem, cat. S1067), and 10 nM gastrin (Tocris Bioscience, cat. 3006). […]
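Also: viability read after seven days of compound exposure.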

Molecule CC(Nc1ccc2c(c1)OCCn1cc(N3C(=O)OCC3C(F)F)nc1-2)C(N)=O (configuration not stated) + C#Cc1c(F)ccc2cc(O)cc(-c3ncc4c(N5CC6CCC(C5)N6)nc(OCC56CCCN5CC(F)C6)nc4c3F)c12 has an IC50 (second compound 0.0316 µM) of 457 nM, an IC50 (second compound 0.1 µM) of 375 nM and an IC50 (second compound 0.316 µM) of 297 nM. The IC50 (second compound 1 µM) was 174 nM, the IC50 (second compound 3.16 µM) was 57.7 nM and the IC50 (second compound 10 µM) was < 31.6 nM. The viability, T/C (second compound 0.0316 µM, first compound 0.0316 µM) was 96.3%, the viability, T/C (second compound 0.0316 µM, first compound 0.1 µM) was 73.7% and the viability, T/C (second compound 0.0316 µM, first compound 0.316 µM) was 59.3%. It also gave a viability, T/C (second compound 0.0316 µM, first compound 1 µM) of 35.5%, a viability, T/C (second compound 0.0316 µM, first compound 3.16 µM) of 24.5% and a viability, T/C (second compound 0.0316 µM, first compound 10 µM) of 16.1%. The viability, T/C (second compound 0.1 µM, first compound 0.0316 µM) was 96.4%, the viability, T/C (second compound 0.1 µM, first compound 0.1 µM) was 76.6% and the viability, T/C (second compound 0.1 µM, first compound 0.316 µM) was 50%. For the same molecule, the viability, T/C (second compound 0.1 µM, first compound 1 µM) was 36.3%, the viability, T/C (second compound 0.1 µM, first compound 3.16 µM) was 22.8% and the viability, T/C (second compound 0.1 µM, first compound 10 µM) was 15%. For the same molecule, the viability, T/C (second compound 0.316 µM, first compound 0.0316 µM) was 91.2%, the viability, T/C (second compound 0.316 µM, first compound 0.1 µM) was 72.9% and the viability, T/C (second compound 0.316 µM, first compound 0.316 µM) was 46.2%. For the same molecule, the viability, T/C (second compound 0.316 µM, first compound 1 µM) was 32.6%, the viability, T/C (second compound 0.316 µM, first compound 3.16 µM) was 23.2% and the viability, T/C (second compound 0.316 µM, first compound 10 µM) was 15%. The viability, T/C (second compound 1 µM, first compound 0.0316 µM) was 89.9%, the viability, T/C (second compound 1 µM, first compound 0.1 µM) was 59.5% and the viability, T/C (second compound 1 µM, first compound 0.316 µM) was 39.6%. It also gave a viability, T/C (second compound 1 µM, first compound 1 µM) of 25.1%, a viability, T/C (second compound 1 µM, first compound 3.16 µM) of 20% and a viability, T/C (second compound 1 µM, first compound 10 µM) of 10.9%. The viability, T/C (second compound 3.16 µM, first compound 0.0316 µM) was 63%, the viability, T/C (second compound 3.16 µM, first compound 0.1 µM) was 36.7% and the viability, T/C (second compound 3.16 µM, first compound 0.316 µM) was 26.6%. It also gave a viability, T/C (second compound 3.16 µM, first compound 1 µM) of 18.2%, a viability, T/C (second compound 3.16 µM, first compound 3.16 µM) of 12.2% and a viability, T/C (second compound 3.16 µM, first compound 10 µM) of 8.25%. It also gave a viability, T/C (second compound 10 µM, first compound 0.0316 µM) of 41.2%, a viability, T/C (second compound 10 µM, first compound 0.1 µM) of 22.2% and a viability, T/C (second compound 10 µM, first compound 0.316 µM) of 21.3%. For the same molecule, the viability, T/C (second compound 10 µM, first compound 1 µM) was 15.4%, the viability, T/C (second compound 10 µM, first compound 3.16 µM) was 8.8% and the viability, T/C (second compound 10 µM, first compound 10 µM) was 3.28%.
